Values quoted from earlier work as cited in patent US10258642B2, “Dextran sulfate for use in mobilization of cells” (TX MEDIC AB, priority 2013, dated 2019).
Where two headings read alike, the source gives them in different places.

Key:
CFU-GM = conditions: cited from earlier work
[1] = system: colony forming cells (CFCs); conditions: mice (Sweeney 2000, 2002); cited from earlier work
[2] = system: colony forming cells (CFCs); conditions: monkeys (Sweeney 2000, 2002); cited from earlier work

Substance: dextran sulfate [dextran sulfate 10 kDa]
- CFU-GM level (CFU-GM; colonies with >50 cells, G-CSF 10 μg/kg daily for five days and/or dextran sulfate 15 mg/kg once on day 5 (Han 1998)): 12.9±1.6 colonies
- time of peaks in peripheral WBC, MNC and CFU-GM (CFU-GM; i.v. injection of 15-30 mg, mice (Han 1998)): 2 to 5 h
- time of CFC mobilization after dextran sulfate administration [1]: 3 h
- time of CFC mobilization after dextran sulfate administration [2]: 6 h
